Assay results taken from patent US20080090734A1, “DRUG SCREENING AND TARGET IDENTIFICATION USING SPR IMAGING OF TARGET PROTEIN ARRAYS” (The Trustees of California State University, priority 2006, published 2008).

Tested on: A. baumannii clinical isolate LAC 01
Assay: Antibiotic susceptibility profile
Format: cell-based, Acinetobacter baumannii
Set-up: key: Resistance; Intermediate; Susceptible
Settings: not given
From the text: (§1) We obtained over thirty clinical isolates of A. baumannii from nosocomial infections in New York City and Los Angeles. […] Only antibiotics with breakpoints for A. baumannii were used. […] Isolates LA 01 to 20 were acquired from Los Angels County while NY-A to NY-H were obtained from New York City.
(§2) Antibiotic susceptibility profiles of clinical isolates of A. baumannii and reference strains. R, I, and S denote Resistance, Intermediate and Susceptible, respectively. Genetic Profiling of Clinical Isolates of A. baumannii

**Q.** With C[C@@H](O)[C@H]1C(=O)N2C(C(=O)O)=C(SCCN=CN)C[C@H]12 [IPM, Imipenem] as the compound, how does the Antibiotic susceptibility read?
**A.** S

Tested on: A. baumannii clinical isolate LAC 02
Assay: Antibiotic susceptibility profile
Format: cell-based, Acinetobacter baumannii
Set-up: key: Resistance; Intermediate; Susceptible
Settings: not given
From the text: as §1, §2

**Q.** With C[C@@H](O)[C@H]1C(=O)N2C(C(=O)O)=C(SCCN=CN)C[C@H]12 [IPM, Imipenem] as the compound, how does the Antibiotic susceptibility read?
**A.** I

Tested on: A. baumannii clinical isolate LAC 03
Assay: Antibiotic susceptibility profile
Format: cell-based, Acinetobacter baumannii
Set-up: key: Resistance; Intermediate; Susceptible
Settings: not given
From the text: as §1, §2

**Q.** With C[C@@H](O)[C@H]1C(=O)N2C(C(=O)O)=C(SCCN=CN)C[C@H]12 [IPM, Imipenem] as the compound, how does the Antibiotic susceptibility read?
**A.** S

Tested on: A. baumannii clinical isolate LAC 04
Assay: Antibiotic susceptibility profile
Format: cell-based, Acinetobacter baumannii
Set-up: key: Resistance; Intermediate; Susceptible
Settings: not given
From the text: as §1, §2

**Q.** C[C@@H](O)[C@H]1C(=O)N2C(C(=O)O)=C(SCCN=CN)C[C@H]12 [IPM, Imipenem] was tested. Which Antibiotic susceptibility did it give?
**A.** S

Tested on: A. baumannii clinical isolate LAC 05
Assay: Antibiotic susceptibility profile
Format: cell-based, Acinetobacter baumannii
Set-up: key: Resistance; Intermediate; Susceptible
Settings: not given
From the text: as §1, §2

**Q.** Which Antibiotic susceptibility does the source give for C[C@@H](O)[C@H]1C(=O)N2C(C(=O)O)=C(SCCN=CN)C[C@H]12 [IPM, Imipenem] here?
**A.** S

Tested on: A. baumannii clinical isolate LAC 06
Assay: Antibiotic susceptibility profile
Format: cell-based, Acinetobacter baumannii
Set-up: key: Resistance; Intermediate; Susceptible
Settings: not given
From the text: as §1, §2

**Q.** With C[C@@H](O)[C@H]1C(=O)N2C(C(=O)O)=C(SCCN=CN)C[C@H]12 [IPM, Imipenem] as the compound, how does the Antibiotic susceptibility read?
**A.** S

Tested on: A. baumannii clinical isolate LAC 07
Assay: Antibiotic susceptibility profile
Format: cell-based, Acinetobacter baumannii
Set-up: key: Resistance; Intermediate; Susceptible
Settings: not given
From the text: as §1, §2

**Q.** How did the Antibiotic susceptibility turn out when C[C@@H](O)[C@H]1C(=O)N2C(C(=O)O)=C(SCCN=CN)C[C@H]12 [IPM, Imipenem] was run?
**A.** I

Tested on: A. baumannii clinical isolate LAC 08
Assay: Antibiotic susceptibility profile
Format: cell-based, Acinetobacter baumannii
Set-up: key: Resistance; Intermediate; Susceptible
Settings: not given
From the text: as §1, §2

**Q.** How did the Antibiotic susceptibility turn out when C[C@@H](O)[C@H]1C(=O)N2C(C(=O)O)=C(SCCN=CN)C[C@H]12 [IPM, Imipenem] was run?
**A.** S

Tested on: A. baumannii clinical isolate LAC 09
Assay: Antibiotic susceptibility profile
Format: cell-based, Acinetobacter baumannii
Set-up: key: Resistance; Intermediate; Susceptible
Settings: not given
From the text: as §1, §2

**Q.** C[C@@H](O)[C@H]1C(=O)N2C(C(=O)O)=C(SCCN=CN)C[C@H]12 [IPM, Imipenem] was tested. Which Antibiotic susceptibility did it give?
**A.** R

Tested on: A. baumannii clinical isolate LAC 10
Assay: Antibiotic susceptibility profile
Format: cell-based, Acinetobacter baumannii
Set-up: key: Resistance; Intermediate; Susceptible
Settings: not given
From the text: as §1, §2

**Q.** With C[C@@H](O)[C@H]1C(=O)N2C(C(=O)O)=C(SCCN=CN)C[C@H]12 [IPM, Imipenem] as the compound, how does the Antibiotic susceptibility read?
**A.** R

Tested on: A. baumannii clinical isolate LAC 11
Assay: Antibiotic susceptibility profile
Format: cell-based, Acinetobacter baumannii
Set-up: key: Resistance; Intermediate; Susceptible
Settings: not given
From the text: as §1, §2

**Q.** Which Antibiotic susceptibility does the source give for C[C@@H](O)[C@H]1C(=O)N2C(C(=O)O)=C(SCCN=CN)C[C@H]12 [IPM, Imipenem] here?
**A.** S

Tested on: A. baumannii clinical isolate LAC 12
Assay: Antibiotic susceptibility profile
Format: cell-based, Acinetobacter baumannii
Set-up: key: Resistance; Intermediate; Susceptible
Settings: not given
From the text: as §1, §2

**Q.** Which Antibiotic susceptibility does the source give for C[C@@H](O)[C@H]1C(=O)N2C(C(=O)O)=C(SCCN=CN)C[C@H]12 [IPM, Imipenem] here?
**A.** S

Tested on: A. baumannii clinical isolate LAC 13
Assay: Antibiotic susceptibility profile
Format: cell-based, Acinetobacter baumannii
Set-up: key: Resistance; Intermediate; Susceptible
Settings: not given
From the text: as §1, §2

**Q.** For C[C@@H](O)[C@H]1C(=O)N2C(C(=O)O)=C(SCCN=CN)C[C@H]12 [IPM, Imipenem], which Antibiotic susceptibility is on record?
**A.** S

Tested on: A. baumannii clinical isolate LAC 14
Assay: Antibiotic susceptibility profile
Format: cell-based, Acinetobacter baumannii
Set-up: key: Resistance; Intermediate; Susceptible
Settings: not given
From the text: as §1, §2

**Q.** C[C@@H](O)[C@H]1C(=O)N2C(C(=O)O)=C(SCCN=CN)C[C@H]12 [IPM, Imipenem] was tested. Which Antibiotic susceptibility did it give?
**A.** S

Tested on: A. baumannii clinical isolate LAC 15
Assay: Antibiotic susceptibility profile
Format: cell-based, Acinetobacter baumannii
Set-up: key: Resistance; Intermediate; Susceptible
Settings: not given
From the text: as §1, §2

**Q.** How did the Antibiotic susceptibility turn out when C[C@@H](O)[C@H]1C(=O)N2C(C(=O)O)=C(SCCN=CN)C[C@H]12 [IPM, Imipenem] was run?
**A.** I

Tested on: A. baumannii clinical isolate LAC 16
Assay: Antibiotic susceptibility profile
Format: cell-based, Acinetobacter baumannii
Set-up: key: Resistance; Intermediate; Susceptible
Settings: not given
From the text: as §1, §2

**Q.** How did the Antibiotic susceptibility turn out when C[C@@H](O)[C@H]1C(=O)N2C(C(=O)O)=C(SCCN=CN)C[C@H]12 [IPM, Imipenem] was run?
**A.** I

Tested on: A. baumannii clinical isolate LAC 17
Assay: Antibiotic susceptibility profile
Format: cell-based, Acinetobacter baumannii
Set-up: key: Resistance; Intermediate; Susceptible
Settings: not given
From the text: as §1, §2

**Q.** With C[C@@H](O)[C@H]1C(=O)N2C(C(=O)O)=C(SCCN=CN)C[C@H]12 [IPM, Imipenem] as the compound, how does the Antibiotic susceptibility read?
**A.** I

Tested on: A. baumannii clinical isolate LAC 18
Assay: Antibiotic susceptibility profile
Format: cell-based, Acinetobacter baumannii
Set-up: key: Resistance; Intermediate; Susceptible
Settings: not given
From the text: as §1, §2

**Q.** How did the Antibiotic susceptibility turn out when C[C@@H](O)[C@H]1C(=O)N2C(C(=O)O)=C(SCCN=CN)C[C@H]12 [IPM, Imipenem] was run?
**A.** I

Tested on: A. baumannii clinical isolate LAC 19
Assay: Antibiotic susceptibility profile
Format: cell-based, Acinetobacter baumannii
Set-up: key: Resistance; Intermediate; Susceptible
Settings: not given
From the text: as §1, §2

**Q.** Which Antibiotic susceptibility does the source give for C[C@@H](O)[C@H]1C(=O)N2C(C(=O)O)=C(SCCN=CN)C[C@H]12 [IPM, Imipenem] here?
**A.** I

Tested on: A. baumannii clinical isolate LAC 20
Assay: Antibiotic susceptibility profile
Format: cell-based, Acinetobacter baumannii
Set-up: key: Resistance; Intermediate; Susceptible
Settings: not given
From the text: as §1, §2

**Q.** With C[C@@H](O)[C@H]1C(=O)N2C(C(=O)O)=C(SCCN=CN)C[C@H]12 [IPM, Imipenem] as the compound, how does the Antibiotic susceptibility read?
**A.** I

Tested on: A. baumannii clinical isolate NY A
Assay: Antibiotic susceptibility profile
Format: cell-based, Acinetobacter baumannii
Set-up: key: Resistance; Intermediate; Susceptible
Settings: not given
From the text: as §1, §2

**Q.** C[C@@H](O)[C@H]1C(=O)N2C(C(=O)O)=C(SCCN=CN)C[C@H]12 [IPM, Imipenem] was tested. Which Antibiotic susceptibility did it give?
**A.** R

Tested on: A. baumannii clinical isolate NY B
Assay: Antibiotic susceptibility profile
Format: cell-based, Acinetobacter baumannii
Set-up: key: Resistance; Intermediate; Susceptible
Settings: not given
From the text: as §1, §2

**Q.** For C[C@@H](O)[C@H]1C(=O)N2C(C(=O)O)=C(SCCN=CN)C[C@H]12 [IPM, Imipenem], which Antibiotic susceptibility is on record?
**A.** R

Tested on: A. baumannii clinical isolate NY C
Assay: Antibiotic susceptibility profile
Format: cell-based, Acinetobacter baumannii
Set-up: key: Resistance; Intermediate; Susceptible
Settings: not given
From the text: as §1, §2

**Q.** C[C@@H](O)[C@H]1C(=O)N2C(C(=O)O)=C(SCCN=CN)C[C@H]12 [IPM, Imipenem] was tested. Which Antibiotic susceptibility did it give?
**A.** R

Tested on: A. baumannii clinical isolate NY D
Assay: Antibiotic susceptibility profile
Format: cell-based, Acinetobacter baumannii
Set-up: key: Resistance; Intermediate; Susceptible
Settings: not given
From the text: as §1, §2

**Q.** How did the Antibiotic susceptibility turn out when C[C@@H](O)[C@H]1C(=O)N2C(C(=O)O)=C(SCCN=CN)C[C@H]12 [IPM, Imipenem] was run?
**A.** R

Tested on: A. baumannii clinical isolate NY E
Assay: Antibiotic susceptibility profile
Format: cell-based, Acinetobacter baumannii
Set-up: key: Resistance; Intermediate; Susceptible
Settings: not given
From the text: as §1, §2

**Q.** Which Antibiotic susceptibility does the source give for C[C@@H](O)[C@H]1C(=O)N2C(C(=O)O)=C(SCCN=CN)C[C@H]12 [IPM, Imipenem] here?
**A.** R

Tested on: A. baumannii clinical isolate NY F
Assay: Antibiotic susceptibility profile
Format: cell-based, Acinetobacter baumannii
Set-up: key: Resistance; Intermediate; Susceptible
Settings: not given
From the text: as §1, §2

**Q.** With C[C@@H](O)[C@H]1C(=O)N2C(C(=O)O)=C(SCCN=CN)C[C@H]12 [IPM, Imipenem] as the compound, how does the Antibiotic susceptibility read?
**A.** R

Tested on: A. baumannii clinical isolate NY G
Assay: Antibiotic susceptibility profile
Format: cell-based, Acinetobacter baumannii
Set-up: key: Resistance; Intermediate; Susceptible
Settings: not given
From the text: as §1, §2

**Q.** How did the Antibiotic susceptibility turn out when C[C@@H](O)[C@H]1C(=O)N2C(C(=O)O)=C(SCCN=CN)C[C@H]12 [IPM, Imipenem] was run?
**A.** R

Tested on: A. baumannii clinical isolate NY H
Assay: Antibiotic susceptibility profile
Format: cell-based, Acinetobacter baumannii
Set-up: key: Resistance; Intermediate; Susceptible
Settings: not given
From the text: as §1, §2

**Q.** How did the Antibiotic susceptibility turn out when C[C@@H](O)[C@H]1C(=O)N2C(C(=O)O)=C(SCCN=CN)C[C@H]12 [IPM, Imipenem] was run?
**A.** R

Tested on: A. baumannii reference strain 15839
Assay: Antibiotic susceptibility profile
Format: cell-based, Acinetobacter baumannii
Set-up: key: Resistance; Intermediate; Susceptible
Settings: strain 15839 (ATCC)
From the text: as §1, §2

**Q.** With C[C@@H](O)[C@H]1C(=O)N2C(C(=O)O)=C(SCCN=CN)C[C@H]12 [IPM, Imipenem] as the compound, how does the Antibiotic susceptibility read?
**A.** S

Tested on: A. baumannii reference strain 17978
Assay: Antibiotic susceptibility profile
Format: cell-based, Acinetobacter baumannii
Set-up: key: Resistance; Intermediate; Susceptible
Settings: strain 17978 (ATCC)
From the text: as §1, §2

**Q.** C[C@@H](O)[C@H]1C(=O)N2C(C(=O)O)=C(SCCN=CN)C[C@H]12 [IPM, Imipenem] was tested. Which Antibiotic susceptibility did it give?
**A.** S

Tested on: A. baumannii reference strain 19606
Assay: Antibiotic susceptibility profile
Format: cell-based, Acinetobacter baumannii
Set-up: key: Resistance; Intermediate; Susceptible
Settings: strain 19606 (ATCC)
From the text: as §1, §2

**Q.** How did the Antibiotic susceptibility turn out when C[C@@H](O)[C@H]1C(=O)N2C(C(=O)O)=C(SCCN=CN)C[C@H]12 [IPM, Imipenem] was run?
**A.** S

Tested on: A. baumannii reference strain AYE
Assay: Antibiotic susceptibility profile
Format: cell-based, Acinetobacter baumannii
Set-up: key: Resistance; Intermediate; Susceptible
Settings: not given
From the text: as §1, §2

**Q.** C[C@@H](O)[C@H]1C(=O)N2C(C(=O)O)=C(SCCN=CN)C[C@H]12 [IPM, Imipenem] was tested. Which Antibiotic susceptibility did it give?
**A.** R

Tested on: A. baumannii reference strain SDF
Assay: Antibiotic susceptibility profile
Format: cell-based, Acinetobacter baumannii
Set-up: key: Resistance; Intermediate; Susceptible
Settings: not given
From the text: as §1, §2

**Q.** Which Antibiotic susceptibility does the source give for C[C@@H](O)[C@H]1C(=O)N2C(C(=O)O)=C(SCCN=CN)C[C@H]12 [IPM, Imipenem] here?
**A.** S
